Assay results from patent US11026944B2, “Compositions and methods for treating insomnia” (Eisai R&D Management Co., Ltd., priority 2014, dated 2021).

Columns and labels:
Assay type in all cases: in vivo, human
[1] = test system: subjects with primary insomnia; experiment: 001 Study Part B: polysomnography (LPS, WASO, SE)
From the text: For Part B, 58 otherwise healthy subjects with primary insomnia were randomized across three cohorts, and stratified by gender. Part B also included an active control (zolpidem) and matching placebo. In each cohort, there were approximately 12 subjects in the compound A/zolpidem-matched placebo group, approximately four subjects in the zolpidem/compound A-matched placebo group, and approximately four subjects in the compound A-matched placebo/zolpidem-matched placebo group. Part B dosing occurred in the evening, 30 minutes prior to the sleep period. The starting dose for Part B was 3 dose levels that determined to be safe and well tolerated in Part A. Subsequent dose levels in Part B were determined based on the PD results of the first cohort in Part B and PD and safety results from at least 3 completed higher dose cohorts in Part A. Each cohort in Part B was divided into at least two groups, with dosing of each group staggered by a minimum of 2 days.
After the initial Screening visit, eligible subjects were scheduled to return to the clinic for 2 days during the Screening Period to conduct screening/baseline PSGs. These two days occurred at least 3 days after the initial Screening visit and within a window from Day-7 to Day-6 (±2 days). The first PSG was used to screen for sleep apnea and periodic limb movements in sleep (PLMS) and serve as the first baseline PSG. The second PSG was used as the second baseline PSG. Specific PSG variables were used to determine whether subjects met PSG inclusion criteria, and the average of PSG variables from these two PSGs was used as Baseline for this PD measure. Subjects who had met PSG inclusion criteria returned to the clinic on Day-1 for additional baseline procedures and randomization. Subjects were not allowed to nap on Day 1. On the evening of Day 1, after fasting a minimum of 3 hours, study drug was administered 30 minutes prior to the subject's habitual bedtime (lights-out), as calculated from the sleep diary for the first PSG during the Screening Period. PK blood samples were collected at prespecified timepoints, and PD assessments were performed. PSG was recorded on Day 1, postdose. Subjects were administered additional PD assessments each morning on Day 1 through Day 6. These assessments included the KSS, DSST, and PVT, in order to assess daytime sleepiness, level of alertness, and ability to concentrate. The KSS and DSST were also administered 5 minutes predose and 25 minutes postdose on Day 1, just prior to lights-out. Waketime Questionnaires were administered after the PD assessments within 15 minutes of lights-on, on Day 1 to Day 6. Time and duration of naps was recorded on Day 2.
In addition, PSG was performed during the Screening Period at Days-7 and -6 (±2 days), and postdose on Day 1. An 8-hour diagnostic PSG consisting of electroencephalogram (EEG), electrooculogram (EOG), electromyogram (EMG), ECGs, leg electrodes, and measures of respiratory function (airflow, respiratory effort, and oxygen saturation) were performed starting at the subject's habitual bedtime as determined from the sleep diary for the 3 nights immediately prior to the first PSG on Day-7 (±2 days). PSG variables from this night were used to screen for sleep apnea and PLMS. On Day-6 (±2) and postdose on Day1, standard PSGs (i.e., not including leg electrodes or measures of respiratory function other than oxygen saturation) were performed. Specified PSG variables from these two PSGs conducted during the Screening Period were used to determine whether subjects met PSG inclusion criteria. The average of PSG variables from these two PSGs conducted during the Screening Period were used as baseline PSG values. The key PD parameters such as PSG LPS, TST, SE, and WASO have been obtained from all PSG recordings.

healthy adult subjects [2] = experiment: 002 Study: next-day residual sleepiness (KSS, PVT, DSST) and Waketime Questionnaire
Protocol: All subjects were administered PD assessments, including the Karolinska Sleepiness Scale (KSS), Digit Symbol Substitution Test (DSST), and Psychomotor Vigilance Test (PVT) in order to assess acute sleepiness in the interval between dosing and bedtime, as well as next-day residual sleepiness and the level of alertness and ability to concentrate. In addition, a Waketime Questionnaire was administered daily in order to assess quality of sleep on the previous night.
PD effects were assessed by evaluating postdose and next-day functioning on the KSS, DSST, and the PVT, and by self-report of sleep quality on the Waketime Questionnaire. The KSS, DSST, and PVT were performed starting Day-1 at 15 minutes before habitual bedtime; on Days 1 to 15 within 15 minutes after habitual waketime, and at 1, 2, 4, 8, and 12 hours after habitual waketime, and on Days 1 to 14 at 15 minutes predose and 15 minutes postdose. 24-hour Holter recordings were started 30 minutes before bedtime on Day-2 and just prior to dosing on Day 14. Extractions from these recordings were used to conduct ECG analyses, including the HPQT analysis. Waketime Questionnaires were administered on Day 1 to Day 19.
The KSS, PVT, and DSST were administered on each treatment day in the evening predose and postdose to assess the acute effect of compound A on sleepiness. For these timepoints, the daily 15 minutes predose values on the KSS, DSST, and PVT served as a baseline for that day's 15 minutes postdose value (daily baseline). The KSS, PVT, and DSST were also administered throughout the daytime hours subsequent to each dosing evening to assess the effect of compound A on next-day residual sleepiness. For these timepoints, the assessments taken at Day 1, 15 minutes and 1, 2, 4, 8, and 12 hours after habitual waketime served as the baseline for the assessments taken at the corresponding times after habitual waketime on Day 2 to Day 15 (time-matched baseline). Waketime Questionnaires were administered on Day 1 through Day 19 in the morning hours. The predose value on Day 1 was used as the baseline. The difference between placebo and each dose of compound A in change from baseline at each timepoint was calculated along with 95% confidence intervals (CIs). Potential dose-response and time trend were explored as data allowed.

healthy adult subjects [3] = experiment: 002 Study: PK-PD exploratory analysis of next-day residual sleepiness; settings: 9-10 hours postdose (1-2 hours after morning awakening), Day 2
Protocol: For the PK-PD exploratory analysis of next-day residual sleepiness, population PK model-derived compound A plasma concentrations at 8, 9, and 10 hours following administration on the evening of Day 1 were related to change from baseline on the KSS, PVT Lapses, and DSST at 15 minutes, 1 hour, and 2 hours after waketime on the morning of Day 2, respectively. […] Concentrations below 30 ng/mL (which occur at doses below 25 mg) after 9-10 hours postdose, which correspond to the 1-2 hours after morning awakening, were associated with minimal or no change from baseline on the KSS, PVT Lapses, or DSST.

Cc1ncc(OC[C@@]2(c3cccc(F)c3)C[C@H]2C(=O)Nc2ccc(F)cn2)c(C)n1 [Compound A, (1R,2 S)-2-(((2,4-dimethylpyrimidin-5-yl)oxy)methyl)-2-(3-fluorophenyl)-N-(5-fluoropyridin-2-yl) cyclopropanecarboxamide]
LPS reduction relative to Baseline ([1]; single 2.5 mg evening dose): approximately 30 minutes | WASO reduction relative to Baseline ([1]; single 2.5 mg evening dose): approximately 30 minutes | LPS reduction relative to Baseline ([1]; single 10 mg evening dose): approximately 30 minutes | WASO reduction relative to Baseline ([1]; single 10 mg evening dose): approximately 30 minutes | LPS reduction relative to Baseline ([1]; single 25 mg evening dose): approximately 45 minutes | WASO reduction relative to Baseline ([1]; single 25 mg evening dose): more than 45 minutes | next day residual sleepiness as measured by KSS, PVT, DSST (healthy adult subjects [2]; 2.5-75 mg once daily for 14 days): dose-related increases in both the magnitude and duration | next-day residual sleepiness vs placebo (KSS, PVT, DSST) (healthy adult subjects [2]; 2.5-mg and 5-mg dose groups, any time, any treatment day): no meaningful difference from placebo | next-day residual sleepiness vs placebo (KSS) (healthy adult subjects [2]; 10-mg dose group, within 2 hours after waketime, Day 2 through Day 4): Slight differences from placebo | increase in next-day residual sleepiness (healthy adult subjects [2]; 25-mg dose group, within 2 hours after waketime): more consistent and slightly larger than in the 10-mg dose group | next-day residual sleepiness vs placebo, all assessments (healthy adult subjects [2]; 50-mg and 75-mg dose groups): consistent and relatively large differences from placebo | Waketime Questionnaire: changes in nighttime sleep (healthy adult subjects [2]; any dose group): None of the items on the Waketime Questionnaire indicated a systematic pattern of changes in nighttime sleep | measures of sleepiness vs placebo (healthy adult subjects [2]; by 12 hours after waketime, any dose group, any day): no differences from placebo | plasma concentration associated with minimal or no change from baseline on KSS, PVT Lapses, DSST (healthy adult subjects [3]): below 30 ng/mL
